For orientation: ED50 means the midpoint of the dose-response relation.

These results are taken from patent US5610161A, “Therapeutic agents” (The Boots Company PLC, priority 1992, dated 1997).

One experiment relates to reserpine-induced ptosis. In words: Test 2: prevention of reserpine-induced ptosis (eye closure) in rats, oral. It counts as in vivo, rats (Charles River CD strain, male). The conditions noted are these: for ED50: Rattus norvegicus, read-out: Test 2 ED50 (dose causing 50% prevention of the reserpine-induced ptosis).
For experiment [1], the system named is reserpine-induced fall in body temperature. In words: Test 1: reversal of reserpine-induced hypothermia in mice, oral. It counts as in vivo, mice (Charles River CD1 strain, male). The note with it: for ED50: Mus musculus, read-out: Test 1 ED50 (dose causing 50% reversal of the reserpine-induced fall in body temperature).
Method: Male mice of the Charles River CD1 strain weighing between 18 and 30 g were separated into groups of five and were supplied with food and water ad libitum. After five hours the body temperature of each mouse was taken orally and the mice were injected intraperitoneally with reserpine (10 mg/kg) in solution in deionised water containing ascorbic acid (50 mg/ml). The amount of liquid injected was 10 ml/kg of body weight. Nine hours after the start of the test food was withdrawn but water was still available ad libitum. Twenty-four hours after the start of the test the temperatures of the mice were taken and the mice were given the test compound orally at a dose volume of 10 ml/kg of body weight. The compound was administered in aqueous solution. Three hours later the temperatures of all the mice were again taken. The percentage reversal of the reserpine-induced fall in body temperature was then calculated by the formula: [formula] The percentage reversal value for each group of five mice was determined at more than one dose rate to enable a value of the dose which causes a 50% reversal (ED50) to be obtained.
The mark [2] stands for this setting: rats, oral, reserpine 0.75 mg/kg i.v., ptosis scored 3 h later.
[3] abbreviates: mice, oral, reserpine 10 mg/kg i.p., temperature 3 h after compound.

The structures appear in SMILES notation. Structures can show the parent of a compound that is named as a salt. Where two headings read alike, the source gives them in different places.

From the text for reserpine-induced ptosis: Male rats of the Charles River CD strain weighing between 140 and 180 g were randomly separated into five rats in each cage and supplied with food and water ad libitum. Eighteen hours prior to initiation of the test four of the five rats were marked with a pen such that each rat was individually identifiable; food was then withdrawn. The following morning, two hours before the test, the rats were weighed and a semi-randomised code was used to allocate treatments to rats. The test commenced by orally administering either:
a) the test compound in solution in deionised water at a dose volume of 10 ml/kg of body weight, followed by immediate intravenous injection of 1 ml/kg of body weight of reserpine (0.75 mg/kg) in solution in deionised water containing 238 mM citric acid, 1.02% v/v Tween 80 and 0.2% v/v benzyl alcohol (treated group);
b) deionised water at a dose volume of 10 ml/kg of body weight, followed by immediate intravenous injection of 1 ml/kg of body weight of reserpine (0.75 mg/kg) in solution in deionised water containing 238 mM citric acid, 1.02% v/v Tween 80 and 0.2% v/v benzyl alcohol (positive control group); or
c) deionised water at a dose volume of 10 ml/kg of body weight, followed by immediate intravenous injection of 1 ml/kg of body weight of deionised water containing 238 mM citric acid, 1.02% v/v Tween 80 and 0.2% v/v benzyl alcohol (negative control group).
The degree of prosis was scored 45 seconds and 75 seconds later using the following observer rating system: 0=eye fully open, 1=eye 1/4 closed, 2=eye 1/2 closed, 3=eye 3/4 closed, 4=eye fully closed. A mean ptosis score was then calculated for all identically treated rats usually comprising a group of eight rats. […] The mean ptosis score for each group of treated rats was determined at more than one dose of test compound to enable a value for the dose (ED50) which causes a 50% prevention of the reserpine-induced ptosis to be obtained.

On to `CCN1CCCC(O)(c2ccc(Cl)cc2)C12CCCCC2.Cl` (centres unmarked) [Example 4, 5-(4-chlorophenyl)-1-ethyl-5-hydroxy-1-azaspiro[5.5]undecane hydrochloride], for which, in the experiment on reserpine-induced ptosis (setting [2]), the ED50 came to 2.2 mg/kg. For the same compound, in experiment [1] (setting [3]), the “Test 1 ED50 (dose causing 50% reversal of the reserpine-induced fall in body temperature)” value is reported as “Inactive @ 30”.
As for `OC1(c2ccc(Cl)cc2)CCCNC12CCCCC2` (centres unmarked) [Example 1, 5-(4-chlorophenyl)-5-hydroxy-1-azaspiro[5.5]undecane], in the experiment with reserpine-induced ptosis (setting [2]), the ED50 was 11.3 mg/kg. Also, the “Test 1 ED50 (dose causing 50% reversal of the reserpine-induced fall in body temperature)” value in experiment [1] (setting [3]) is listed as “Inactive @ 30”.
Take `Clc1ccc(C2=CCCNC23CCCC3)cc1.O=S(=O)(O)O` [Example 17, 10-(4-chlorophenyl)-6-azaspiro[4.5]dec-9-ene sulphate]: the ED50 with reserpine-induced ptosis (po, 3 h) was 3.1 mg/kg; in experiment [1] (po, 3 h) it was about 23 mg/kg.
For `Cl.Clc1ccc(C2=CCNC23CCCCC3)cc1` [Example 26, 4-(4-chlorophenyl)-1-azaspiro[4.5]dec-3-ene hydrochloride], the ED50 in the experiment with reserpine-induced ptosis (setting [2]) is 5.6 mg/kg. For the same compound, the “Test 1 ED50 (dose causing 50% reversal of the reserpine-induced fall in body temperature)” value in experiment [1] (setting [3]) is listed as “Inactive @ 30”.
For `COCCN1CCC=C(c2ccc(Cl)cc2)C12CCCCC2` [Example 22, 5-(4-chlorophenyl)-1-(2-methoxyethyl)-1-azaspiro[5.5]undec-4-ene 1.25 hydrochloride], the ED50 was 10.1 mg/kg in the experiment on reserpine-induced ptosis (setting [2]) and about 30 mg/kg in experiment [1] (setting [3]).
Consider `Clc1ccc(C2=CCCNC23CCCCC3)cc1.O=S(=O)(O)O` [Example 5, 5-(4-chlorophenyl)-1-azaspiro[5.5]undec-4-ene sulphate], for which the ED50 in the experiment with reserpine-induced ptosis (po, 3 h) was 7 mg/kg; in experiment [1] (po, 3 h) it was about 20 mg/kg.
Regarding `C1=C(c2ccc3ccccc3c2)C2(CCCCC2)NCC1.Cl` [Example 12, 5-(2-naphthyl)-1-azaspiro[5.5]undec-4-ene hydrochloride], the ED50 (in the experiment on reserpine-induced ptosis (setting [2]); in experiment [1] (setting [3])) was 11.9 mg/kg in each case.
Regarding `Cl.Clc1ccc(C2=CCCNC23CCCCC3)cc1Cl` [Example 9, 5-(3,4-dichlorophenyl)-1-azaspiro[5.5]undec-4-ene hydrochloride], the median effective dose (ED50) with reserpine-induced ptosis (setting [2]) was 3.9 mg/kg; in experiment [1] (setting [3]) it was about 11 mg/kg.
In the case of `OC1(c2cccc(Cl)c2)CCCNC12CCCCC2` (centres unmarked) [Example 2, 5-(3-chlorophenyl)-5-hydroxy-1-azaspiro[5.5]undecane], the ED50 in the experiment on reserpine-induced ptosis (setting [2]) is 8.1 mg/kg; in experiment [1] (setting [3]), about 16 mg/kg.
Regarding `Cl.Oc1ccc(C2=CCCNC23CCCCC3)cc1` [Example 13, 5-(4-hydroxyphenyl)-1-azaspiro[5.5]undec-4-ene hydrochloride], the ED50 in the experiment on reserpine-induced ptosis (setting [2]) turned out to be 21.8 mg/kg. The “Test 1 ED50 (dose causing 50% reversal of the reserpine-induced fall in body temperature)” value in experiment [1] (setting [3]) is on record as “Inactive @ 30”.
Take `Clc1ccc(C2=CCCNC23CCCCC3)cc1` [Example 6, 5-(4-chlorophenyl)-1-azaspiro[5.5]undec-4-ene 0.5 sulphate, 2.1 hydrate]: the figures for the ED50 (with reserpine-induced ptosis (setting [2]); in experiment [1] (setting [3])) were 2.7 mg/kg and 14.1 mg/kg, respectively.
Turning to `CCCN1CCC=C(c2ccc(Cl)cc2)C12CCCCC2` [Example 20, 5-(4-chlorophenyl)-1-propyl-1-azaspiro[5.5]undec-4-enehydrochloride], the ED50 is 3 mg/kg with reserpine-induced ptosis (setting [2]) and about 26 mg/kg in experiment [1] (setting [3]).
`C=CCN1CCC=C(c2ccc(Cl)cc2)C12CCCCC2.O=C(O)/C=C\C(=O)O` [Example 21, 1-allyl-5-(4-chlorophenyl)-1-azaspiro[5.5]undec-4-ene maleate]: the 50% effective dose (ED50) in the experiment with reserpine-induced ptosis (setting [2]) was determined as 9.1 mg/kg. Besides, in experiment [1] (setting [3]), the “Test 1 ED50 (dose causing 50% reversal of the reserpine-induced fall in body temperature)” value is on record as “Inactive @ 30”.
Regarding `Cl.Clc1cccc(C2=CCCNC23CCCCC3)c1` [Example 8, 5-(3-chlorophenyl)-1-azaspiro[5.5]undec-4-ene hydrochloride], the ED50 with reserpine-induced ptosis (po, 3 h) is 5.1 mg/kg; in experiment [1] (po, 3 h), 16.4 mg/kg.
Take `COc1ccc(C2CCCNC23CCCCC3)cc1.Cl` (centres unmarked) [Example 19, 5-(4-methoxyphenyl)-1-azaspiro[5.5]undecane hydrochloride]: the results for the ED50 (in the experiment on reserpine-induced ptosis (setting [2]); in experiment [1] (setting [3])) were 5.8 mg/kg and about 14 mg/kg, respectively.
As for `CS(=O)(=O)O.Clc1ccc(C2=CCCNC23CCCCC3)cc1` [Example 16, 5-(4-chlorophenyl)-1-azaspiro[5.5]undec-4-ene methanesulphonate], the ED50 in the experiment on reserpine-induced ptosis (setting [2]) is 3.3 mg/kg; in experiment [1] (setting [3]), 9.4 mg/kg.
With `OC1(c2ccc(Cl)c(Cl)c2)CCCNC12CCCCC2` (centres unmarked) [Example 3, 5-(3,4-dichlorophenyl)-5-hydroxy-1-azaspiro[5.5]undecane], the ED50 worked out at 7.7 mg/kg in the experiment with reserpine-induced ptosis (setting [2]) and 10.7 mg/kg in experiment [1] (setting [3]).
As to `C1=C(c2ccc(-c3ccccc3)cc2)C2(CCCCC2)NCC1.Cl` [Example 25, 5-(4-biphenylyl)-1-azaspiro[5.5]undec-4-ene hydrochloride], the ED50 in the experiment with reserpine-induced ptosis (setting [2]) turned out to be 9.9 mg/kg. In addition, in experiment [1] (setting [3]), the “Test 1 ED50 (dose causing 50% reversal of the reserpine-induced fall in body temperature)” value is “Inactive @ 30”.
Turning to `CN1CCC=C(c2ccc(Cl)cc2)C12CCCCC2.Cl` [Example 14, 5-(4-chlorophenyl)-1-methyl-1-azaspiro[5.5]undec-4-ene hydrochloride], the ED50 in the experiment with reserpine-induced ptosis (setting [2]) was 30 mg/kg; in experiment [1] (setting [3]), about 12 mg/kg.
As for `Clc1ccc(C2=CCCNC23CCCCC3)cc1.O=C(O)/C=C/C(=O)O` [Example 15, 5-(4-chlorophenyl)-1-azaspiro[5.5]undec-4-ene fumarate], the ED50 in the experiment on reserpine-induced ptosis (setting [2]) came to 3.8 mg/kg; in experiment [1] (setting [3]) it was 6.9 mg/kg.
In the case of `Cl.FC(F)(F)c1cccc(C2=CCCNC23CCCCC3)c1` [Example 11, 5-[3-(trifluoromethyl)phenyl]-1-azaspiro[5.5]undec-4-ene hydrochloride], in the experiment on reserpine-induced ptosis (setting [2]), the “Test 2 ED50 (dose causing 50% prevention of the reserpine-induced ptosis)” value is on record as “Inactive @ 30”. In addition, the ED50 in experiment [1] (setting [3]) was about 22 mg/kg.
For `Cl.Clc1ccc(C2CCCNC23CCCCC3)cc1` (centres unmarked) [Example 18, 5-(4-chlorophenyl)-1-azaspiro[5.5]undecane hydrochloride], the ED50 with reserpine-induced ptosis (setting [2]) came to 0.5 mg/kg; in experiment [1] (setting [3]) it was 4.8 mg/kg.
In the case of `Cl.Clc1ccc(C2=CCCNC23CCCCC3)cc1` [Example 7, 5-(4-chlorophenyl)-1-azaspiro[5.5]undec-4-ene hydrochloride], the ED50 in the experiment on reserpine-induced ptosis (setting [2]) turned out to be 1.4 mg/kg; in experiment [1] (setting [3]) it was 2 mg/kg.
On to `C1=C(c2ccccc2)C2(CCCCC2)NCC1.Cl` [Example 24, 5-phenyl-1-azaspiro[5.5]undec-4-ene hydrochloride], for which, in the experiment on reserpine-induced ptosis (setting [2]), the “Test 2 ED50 (dose causing 50% prevention of the reserpine-induced ptosis)” value is “Inactive @ 30”. Moreover, the ED50 in experiment [1] (setting [3]) was about 11.5 mg/kg.
With `Fc1ccc(C2=CCCNC23CCCCC3)cc1.O=S(=O)(O)O` [Example 10, 5-(4-fluorophenyl)-1-azaspiro[5.5]undec-4-ene sulphate], the median effective dose (ED50) is 8.5 mg/kg in the experiment with reserpine-induced ptosis (po, 3 h) and about 18 mg/kg in experiment [1] (po, 3 h).
